Data on one compound can be found in patent US20180118721A1, “PYRIMIDINE DERIVATIVES” (Merck Patent GmbH, priority 2015, published 2018).

Structures are written as SMILES. Converted amounts (≈) assume the structure as drawn.

Data set [1] deals with T1, purified human recombinant MTH1 (human MTH1, residues 42-197) (Homo sapiens, UniProt P36639).
T1 construct: human MTH1, residues 42-197, Uniprot-ID: P36639, expressed in E. coli; made in house; host or cells: E. coli
The data set can be described thus: MTH1 enzymatic assay (luminescence-based, PPiLight). As to conditions: Table 2. It is filed as biochemical.

Data set [2] can be described thus: Shake flask solubility measurement. In kind it is physicochemical. As to conditions: aqueous buffer, thermodynamic from solid, phosphate buffer pH 7.4, 37° C. How it is done: Compound solubility in aqueous solution is determined by a standard method in the art, the shake flask method. Solubility measurement is performed under equilibrium conditions at pH 7.4. Samples are prepared by dissolving an excess of the test compound in a phosphate buffer (made up of 3,954 g sodium hydrogenphosphate-monohydrate, 6,024 g sodium chloride, 950 ml ultrapure water and adjusted to pH 7.4 with 0.1 M NaOH or 0.1 M HCl). These samples are shaken at 37° C. with 450 rpm (shaker: TiMix control Bühler) for 24 h in total until equilibrium is reached. After 7 hours shaking, the pH value of the sample is controlled and adjusted, if necessary. It is also checked that the sample (test compound) is available in excess. Shortly before the end of 24 h, samples are checked again for pH and precipitate. At the end of 24 h and after separation of the solid by filtration, the concentration of the compound in the filtrate is determined by liquid chromatography using […] (LC-UV).
Sample preparation: Incubation hood: TH 15 Bühler; pH device 766 Calimatic Knick; pH electrode InLab 423 Mettler
Chromatography Conditions:
Column: Chromolith RP18e 100×3 mm
Wavelength range: 190-400 nm • select a suitable evaluation wavelength
Injection volume: Probe 5 μl and 15 μl; Standard 5 μl
Column stove temperature: 37° C.
Eluent A: water/formic acid (999:1; v/v)
Eluent B: acetonitrile/formic acid (999:1; v/v)

As a reminder, the IC50 is the concentration that gives 50% inhibition. Usually solubility stands for the dissolved amount per volume that the medium holds. The low end stands for a poorly soluble substance, the high end for a readily soluble substance. Turning to `CNc1cc(-c2cccc(Cl)c2Cl)nc(N)n1` [TH-287, reference compound], the IC50 in data set [1] is less than 1 nM. The compound further returned a solubility at 24 h in data set [2] of 22 µg/mL (≈ 81.7 µM).
